Earlier results, collected in US20100086625A1, “METHODS FOR TREATING SKIN LESIONS” (priority 2008, published 2010).

System: cold sores
Settings: oral

Row | Structure (SMILES) | shortening of a herpes infection (2 gm twice a day for one day) | shortening of the herpes infection (1500 mg)
1 | CC(C)[C@H](N)C(=O)OCCOCn1cnc2c(=O)[nH]c(N)nc21 [valacyclovir] | over one | 
2 | CC(=O)OCC(CCn1cnc2cnc(N)nc21)COC(C)=O [famciclovir] |  | two
